The values that follow come from patent publication US10189788B2, “Substituted N,2-diarylquinoline-4-carboxamides and the use thereof as anti-inflammatory agents” (BAYER PHARMA AKTIENGESELLSCHAFT, priority 2014, dated 2019).

SMILES strings stand for the structures.

T1 sequence (P43088 whole entry): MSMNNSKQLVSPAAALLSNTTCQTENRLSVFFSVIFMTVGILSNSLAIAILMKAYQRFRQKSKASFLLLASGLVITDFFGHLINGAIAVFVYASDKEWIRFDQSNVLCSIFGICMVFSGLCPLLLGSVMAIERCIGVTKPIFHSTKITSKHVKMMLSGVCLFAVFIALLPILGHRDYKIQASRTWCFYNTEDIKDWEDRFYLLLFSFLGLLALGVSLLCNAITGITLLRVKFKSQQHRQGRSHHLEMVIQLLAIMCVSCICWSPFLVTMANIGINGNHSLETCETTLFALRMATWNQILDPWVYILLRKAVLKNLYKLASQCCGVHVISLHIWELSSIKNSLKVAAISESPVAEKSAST

The first assay addresses T1, Human FP Receptor (Homo sapiens (Human), UniProt P43088). The assay is described as follows: In vitro test of inhibition of human FP receptor activity, variant B-1B (PGF2α-induced calcium flux in recombinant FP-expressing CHO cells with GCaMP6). It counts as cell-based. Conditions: recombinant FP-expressing CHO cells with GCaMP6, calcium flux induced by 3 nM PGF2α, some mean values from multiple determinations. The text has this:
470 nm/em. 525 nm in a fluorescence measuring instrument (FLIPR Tetra®, MolecularDevices) for 120 seconds.
In general, IC50 refers to the concentration at which inhibition is half-maximal. On to `Cc1c(-c2ccccc2)nc2ccc(Br)cc2c1C(=O)Nc1ccc(C(=O)O)c(F)c1F` [Example 65, 4-{[(6-Bromo-3-methyl-2-phenylquinolin-4-yl)carbonyl]amino}-2,3-difluorobenzoic acid], for which the IC50 came to 60 nM.

As for `O=C(O)c1ccc(NC(=O)c2c(F)c(-c3ccccc3)nc3ccc(Br)cc23)c(F)c1` [Example 73, 4-{[(6-Bromo-3-fluoro-2-phenylquinolin-4-yl)carbonyl]amino}-3-fluorobenzoic acid], the IC50 was determined as 98 nM.

`Cc1c(-c2ccccc2)nc2ccc(C(C)(C)C)cc2c1C(=O)Nc1ccc(C(=O)O)cc1F` [Example 61, 4-{[(6-tert-Butyl-3-methyl-2-phenylquinolin-4-yl)carbonyl]amino}-3-fluorobenzoic acid]: the IC50 was 79 nM.

Turning to `Cc1c(-c2ccccc2)nc2ccc(Br)cc2c1C(=O)Nc1ccc(C(=O)NS(=O)(=O)N(C)C)cc1F` [Example 68, 6-Bromo-N-{4-[(dimethylsulfamoyl)carbamoyl]-2-fluorophenyl}-3-methyl-2-phenylquinoline-4-carboxamide], the IC50 stood at 182 nM.

Regarding `Cc1c(-c2ccccc2)nc2ccc(Br)cc2c1C(=O)Nc1ccc(C(=O)O)cc1F` [Example 7, 4-{[(6-Bromo-3-methyl-2-phenylquinolin-4-yl)carbonyl]amino}-3-fluorobenzoic acid], the IC50 came to 34 nM.

For the compound `COCSc1cc(C(=O)O)ccc1NC(=O)c1c(C)c(-c2ccccc2)nc2ccc(Br)cc12` [Example 52, 4-{[(6-Bromo-3-methyl-2-phenylquinolin-4-yl)carbonyl]amino}-3-[(methoxymethyl)sulfanyl]benzoic acid], the 50% inhibitory concentration (IC50) amounted to 6 nM.

Regarding `Cc1c(-c2ccccc2)nc2ccc(Br)cc2c1C(=O)Nc1ccc(C(=O)NS(=O)(=O)C(F)(F)F)cc1F` [Example 67, 6-Bromo-N-(2-fluoro-4-{[(trifluoromethyl)sulfonyl]carbamoyl}phenyl)-3-methyl-2-phenylquinoline-4-carboxamide], the IC50 worked out at 134 nM.

In the next assay the target is T1, Human FP Receptor. The experiment in a line: In vitro test of inhibition of human FP receptor activity, variant B-1A (PGF2α-induced calcium flux in FP-expressing CHEM1 cells). In kind it is cell-based. Conditions: calcium flux induced by 3 nM PGF2α, Fluo-8, some mean values from multiple determinations. The source says:
• BSA bovine serum albumin • CRTH2 chemoattractant receptor-homologous molecule expressed on T helper type 2 cells • DMEM Dulbecco's modified Eagle's medium • DMSO dimethyl sulfoxide • DP PGD2 receptor • EC50 half-maximum effective concentration • em. emission • EP PGE2 receptor • ex. excitation • FCS fetal calf serum • FP PGF2α receptor • HEPES 2-[4-(2-hydroxyethyl)piperazin-1-yl]ethanesulfonic acid • IC50 half-maximum inhibitory concentration • IP PGI2 receptor • MES 2-(N-morpholino)ethanesulfonic acid • Pen/Strep penicillin/streptomycin • PGD2 prostaglandin D2 • PGE2 prostaglandin E2 • PGF2α prostaglandin F2α • PGI2 prostaglandin […] • TC tissue culture • TP thromboxane A2 receptor • Tris tris(hydroxymethyl)aminomethane • v/v volume to volume ratio (of a solution) • w/w weight to weight ratio (of a solution) B-1.
On the technique in general: A change in cytosolic calcium serves as a functional read-out for many receptors and channels.
For the compound `Cc1c(-c2ccccc2)nc2ccc(Br)cc2c1C(=O)Nc1ccc(C(=O)O)c(F)c1F` [Example 65, 4-{[(6-Bromo-3-methyl-2-phenylquinolin-4-yl)carbonyl]amino}-2,3-difluorobenzoic acid], the IC50 was determined as 105 nM.

Take `Cc1c(-c2ccccc2)nc2ccc(C(C)(C)C)cc2c1C(=O)Nc1ccc(C(=O)O)cc1F` [Example 61, 4-{[(6-tert-Butyl-3-methyl-2-phenylquinolin-4-yl)carbonyl]amino}-3-fluorobenzoic acid]: the IC50 worked out at 131 nM.

As for `COCS(=O)(=O)c1cc(C(=O)O)ccc1NC(=O)c1c(C)c(-c2ccccc2)nc2ccc(Br)cc12` [Example 60, 4-{[(6-Bromo-3-methyl-2-phenylquinolin-4-yl)carbonyl]amino}-3-[(methoxymethyl)sulfonyl]benzoic acid], the IC50 was found to be 27 nM.

Consider `COc1cc(C(=O)O)ccc1NC(=O)c1c(C)c(-c2ccccc2)nc2ccc(Br)cc12` [Example 21, 4-{[(6-Bromo-3-methyl-2-phenylquinolin-4-yl)carbonyl]amino}-3-methoxybenzoic acid], for which the IC50 stood at 204 nM.

As to `Cc1c(-c2ccccc2)nc2ccc(Br)cc2c1C(=O)Nc1ccc(C(=O)NS(=O)(=O)N(C)C)cc1F` [Example 68, 6-Bromo-N-{4-[(dimethylsulfamoyl)carbamoyl]-2-fluorophenyl}-3-methyl-2-phenylquinoline-4-carboxamide], the IC50 was found to be 318 nM.

`O=C(O)c1ccc(NC(=O)c2c(Cl)c(-c3ccccc3)nc3ccc(I)cc23)c(F)c1` [Example 75, 4-{[(3-Chloro-6-iodo-2-phenylquinolin-4-yl)carbonyl]amino}-3-fluorobenzoic acid]: the IC50 turned out to be 9 nM.

As to `Cc1c(-c2ccccc2)nc2ccc(Br)cc2c1C(=O)Nc1c(Cl)cc(C(=O)O)cc1Cl` [Example 13, 4-{[(6-Bromo-3-methyl-2-phenylquinolin-4-yl)carbonyl]amino}-3,5-dichlorobenzoic acid], the IC50 stood at 150 nM.

Turning to `CCNC(=O)Nc1cc(C(=O)O)ccc1NC(=O)c1c(C)c(-c2ccccc2)nc2ccc(Br)cc12` [Example 20, 4-{[(6-Bromo-3-methyl-2-phenylquinolin-4-yl)carbonyl]amino}-3-[(ethylcarbamoyl)amino]benzoic acid], the IC50 came out at 530 nM.

Turning to `Cc1c(-c2ccccc2)nc2ccc(Br)cc2c1C(=O)Nc1ccc(C(=O)O)cc1F` [Example 7, 4-{[(6-Bromo-3-methyl-2-phenylquinolin-4-yl)carbonyl]amino}-3-fluorobenzoic acid], the IC50 was 20 nM.

As for `Cc1c(-c2ccccc2)nc2ccc(Br)cc2c1C(=O)Nc1ccc(C(=O)O)c(F)c1` [Example 8, 4-{[(6-Bromo-3-methyl-2-phenylquinolin-4-yl)carbonyl]amino}-2-fluorobenzoic acid], the half-maximal inhibitory concentration (IC50) was 795 nM.

Regarding `Cc1c(-c2ccccc2)nc2ccc(Br)cc2c1C(=O)Nc1ccc(C(=O)O)cc1C(F)(F)F` [Example 15, 4-{[(6-Bromo-3-methyl-2-phenylquinolin-4-yl)carbonyl]amino}-3-(trifluoromethyl)benzoic acid], the IC50 was determined as 45 nM.

As to `Cc1cc(C(=O)O)ccc1NC(=O)c1c(C)c(-c2ccccc2)nc2ccc(Br)cc12` [Example 14, 4-{[(6-Bromo-3-methyl-2-phenylquinolin-4-yl)carbonyl]amino}-3-methylbenzoic acid], the IC50 worked out at 617 nM.

Turning to `Cc1c(-c2ccccc2)nc2ccc(Br)cc2c1C(=O)Nc1cnc(C(=O)O)cn1` [Example 3, 5-{[(6-Bromo-3-methyl-2-phenylquinolin-4-yl)carbonyl]amino}pyrazine-2-carboxylic acid], the IC50 is 170 nM.

For the compound `Cc1c(-c2ccccc2)nc2ccc(Br)cc2c1C(=O)Nc1ccc(C(=O)O)cc1Br` [Example 10, 3-Bromo-4-{[(6-bromo-3-methyl-2-phenylquinolin-4-yl)carbonyl]amino}benzoic acid], the IC50 came out at 41 nM.

For `Cc1c(-c2ccc(F)cc2)nc2ccc(Br)cc2c1C(=O)Nc1ccc(C(=O)O)cc1F` [Example 43, 4-({[6-Bromo-2-(4-fluorophenyl)-3-methylquinolin-4-yl]carbonyl}amino)-3-fluorobenzoic acid], the half-maximal inhibitory concentration (IC50) is 52 nM.

As for `Cc1c(-c2ccccc2)nc2ccc(Br)cc2c1C(=O)Nc1ccc(C(=O)O)cc1` [Example 1, 4-{[(6-Bromo-3-methyl-2-phenylquinolin-4-yl)carbonyl]amino}benzoic acid], the IC50 turned out to be 166 nM.

With `Cc1c(-c2ccccc2)nc2ccc(F)cc2c1C(=O)Nc1ccc(C(=O)O)cc1F` [Example 29, 3-Fluoro-4-{[(6-fluoro-3-methyl-2-phenylquinolin-4-yl)carbonyl]amino}benzoic acid], the IC50 is 890 nM.

Take `COCSc1cc(C(=O)O)ccc1NC(=O)c1c(C)c(-c2ccccc2)nc2ccc(Br)cc12` [Example 52, 4-{[(6-Bromo-3-methyl-2-phenylquinolin-4-yl)carbonyl]amino}-3-[(methoxymethyl)sulfanyl]benzoic acid]: the IC50 stood at 17 nM.

As to `O=C(O)c1ccc(NC(=O)c2c(Cl)c(-c3ccccc3)nc3ccc(Br)cc23)c(F)c1` [Example 76, 4-{[(6-Bromo-3-chloro-2-phenylquinolin-4-yl)carbonyl]amino}-3-fluorobenzoic acid], the IC50 is 17 nM.

With `Cc1c(-c2ccccc2)nc2ccc(Br)cc2c1C(=O)Nc1ccc(C(=O)NS(=O)(=O)C(F)(F)F)cc1F` [Example 67, 6-Bromo-N-(2-fluoro-4-{[(trifluoromethyl)sulfonyl]carbamoyl}phenyl)-3-methyl-2-phenylquinoline-4-carboxamide], the IC50 amounted to 239 nM.

Consider `CNC(=O)c1ccc(NC(=O)c2c(C)c(-c3ccccc3)nc3ccc(Br)cc23)c(F)c1` [Example 56, 6-Bromo-N-[2-fluoro-4-(methylcarbamoyl)phenyl]-3-methyl-2-phenylquinoline-4-carboxamide], for which the IC50 is 285 nM.

`CSc1cc(C(=O)O)ccc1NC(=O)c1c(C)c(-c2ccccc2)nc2ccc(Br)cc12` [Example 24, 4-{[(6-Bromo-3-methyl-2-phenylquinolin-4-yl)carbonyl]amino}-3-(methylsulfanyl)benzoic acid]: the IC50 came to 124 nM.

For the compound `Cc1c(-c2ccccc2)nc2ccc(Br)cc2c1C(=O)Nc1c(F)cc(C(=O)O)cc1F` [Example 12, 4-{[(6-Bromo-3-methyl-2-phenylquinolin-4-yl)carbonyl]amino}-3,5-difluorobenzoic acid], the IC50 came to 22 nM.

As for `CC(=O)Nc1cc(C(=O)O)ccc1NC(=O)c1c(C)c(-c2ccccc2)nc2ccc(Br)cc12` [Example 19, 3-Acetamido-4-{[(6-bromo-3-methyl-2-phenylquinolin-4-yl)carbonyl]amino}benzoic acid], the IC50 came to 650 nM.

With `Cc1c(-c2ccccc2)nc2ccc(Br)cc2c1C(=O)Nc1ccc(C(N)=O)cc1` [Example 47, 6-Bromo-N-(4-carbamoylphenyl)-3-methyl-2-phenylquinoline-4-carboxamide], the IC50 was 197 nM.

On to `Cc1c(-c2ccccc2)nc2ccc(C(C)C)cc2c1C(=O)Nc1ccc(C(=O)O)cc1F` [Example 33, 3-Fluoro-4-{[(6-isopropyl-3-methyl-2-phenylquinolin-4-yl)carbonyl]amino}benzoic acid], for which the IC50 came out at 272 nM.

Consider `CCCc1c(-c2ccccc2)nc2ccc(Br)cc2c1C(=O)Nc1ccc(C(=O)O)cc1F` [Example 40, 4-{[(6-Bromo-2-phenyl-3-propylquinolin-4-yl)carbonyl]amino}-3-fluorobenzoic acid], for which the IC50 came to 560 nM.

As for `Cc1nc(C(=O)O)ccc1NC(=O)c1c(C)c(-c2ccccc2)nc2ccc(Br)cc12` [Example 5, 5-{[(6-Bromo-3-methyl-2-phenylquinolin-4-yl)carbonyl]amino}-6-methylpyridine-2-carboxylic acid], the IC50 amounted to 905 nM.

For the compound `Cc1c(-c2ccccc2)nc2ccc(Br)cc2c1C(=O)Nc1ccc(C(=O)O)cc1OC(F)(F)F` [Example 23, 4-{[(6-Bromo-3-methyl-2-phenylquinolin-4-yl)carbonyl]amino}-3-(trifluoromethoxy)benzoic acid], the IC50 was 57 nM.

For `Cc1c(-c2ccccc2)nc2ccc(Br)cc2c1C(=O)Nc1ccc(C(=O)O)cc1[S+](C)[O-]` (stereo not drawn) [Example 25, 4-{[(6-Bromo-3-methyl-2-phenylquinolin-4-yl)carbonyl]amino}-3-(methylsulfinyl)benzoic acid], the IC50 was 720 nM.

`COc1c(-c2ccccc2)nc2ccc(Br)cc2c1C(=O)Nc1ccc(C(=O)O)cc1F` [Example 74, 4-{[(6-Bromo-3-methoxy-2-phenylquinolin-4-yl)carbonyl]amino}-3-fluorobenzoic acid]: the IC50 was 220 nM.

On to `Cc1c(-c2ccccc2)nc2ccc(Br)cc2c1C(=O)Nc1ccc(C(=O)O)cc1SC(F)(F)F` [Example 28, 4-{[(6-Bromo-3-methyl-2-phenylquinolin-4-yl)carbonyl]amino}-3-[(trifluoromethyl)sulfanyl]benzoic acid], for which the IC50 was determined as 17 nM.
